Measurements as given in US11959083B2, “Immunosuppression-reverting oligonucleotides inhibiting the expression of CD39” (Secarna Pharmaceuticals GmbH & Co. KG, priority 2016, dated 2024).
l = locked nucleic acid (LNA); d = 2'-deoxy (DNA)

What was measured:
[1] = tested on: hCD39 protein; experiment: Concentration- and time-dependent hCD39 protein knockdown in HDLM-2 cells (flow cytometry); assay type: cell-based, human; settings: for inhibition of hCD39 protein: HDLM-2 cells, three, four and six days, different concentrations; for Inhibition [%] (Protein/mRNA): HDLM-2, CD39 protein
Protocol: FIG. 8 depicts concentration- and time-dependent CD39 protein knockdown by A04040H (SEQ ID No. 3) and A04045H (SEQ ID No. 4). Analysis of CD39 protein expression by flow cytometry in HDML-2 cells is given after treatment with the indicated antisense oligonucleotides for 3, 4 and 6 days. As treatment control, cells were treated with neg1 for 3, 4 and 6 days at the indicated concentrations. Relative expression compared to untreated control cells (=1) is depicted.
HDLM-2 cells were therefore treated with different concentrations of the respective antisense oligonucleotide for three, four and six days, respectively. Protein expression was analyzed by flow cytometry using the CD39 antibody (clone A1) and 7-AAD to investigate viability. […] Table 13summarizes protein knockdown efficiency of the selected human CD39 antisense oligonucleotides A04040H (SEQ ID No. 3) and A04045H (SEQ ID No. 4) in HDLM-2 cells at different time points: […]

[2] = tested on: hCD39 mRNA; experiment: hCD39 mRNA knockdown efficacy screen in HDLM-2 cells (single dose, gymnotic delivery, QuantiGene Singleplex); assay type: cell-based, human; settings: 10 μM; for Mean hCD39 mRNA expression normalized to HPRT1 relative to untreated control = 1: first screening round; for Relative hCD39 mRNA expression (compared to non-treated cells): second screening round, normalized to HPRT1
Outline: (§1)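 Antisense oligonucleotides given once at 10 μM without transfection reagent (gymnotic) to HDLM-2 or A-172 cells for 3 days. hCD39 mRNA measured by QuantiGene Singleplex, normalized to HPRT1 and expressed relative to untreated cells; triplicate means.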

[3] = tested on: hCD39; experiment: ATP degradation in primary human CD8+ T cells after hCD39 knockdown (ATP Bioluminescence Assay); assay type: cell-based; settings: for Relative ATP levels in supernatants of CD8+ T cells 30 minutes after addition of ATP: 5 μM oligonucleotide 6 days, medium = 1
Protocol: FIG. 11A-11D show knockdown of hCD39 protein (FIG. 11A) and viability (FIG. 11B) of primary human CD8^+ T cells, isolated from peripheral blood using MACS. CD8^+ T cells were activated by plate-bound anti-human CD3 (OKT-3). Activated cells were treated with RPMI-1640 medium, medium supplemented with A04040H (SEQ ID No. 3), and medium supplemented with neg1 at 5 μM, respectively, for 6 days in total. After 3 days, medium was replaced with fresh medium containing 5 μM of A04040H (SEQ ID No. 3) and neg 1, respectively, and hCD39 protein knockdown efficacy (FIG. 11A) and viability (FIG. 11B) were analyzed on day 6 by flow cytometry. Residual hCD39 expression and viability (median of 7-AAD positive cells) is depicted compared to untreated cells (FIG. 11A-11B). The same day, cells were harvested, washed and re-plated at a constant cell number (150.000 cells/Well in a 96-Well plate) in triplicates. Then, 2 μM (FIG. 11C) or 20 μM (FIG. 11D) of ATP was added to cells or cell culture medium without cells and ATP concentration of cell supernatants or cell culture medium was determined after 30 min using the ATP Bioluminescence Assay Kit (Roche).
Additionally, the effect of hCD39 knockdown on ATP degradation was also analyzed in primary human CD8^+ T cells (FIG. 11A-11D). Activated T cells were treated with 5 μM antisense oligonucleotide A04040H (SEQ ID No. 3) or the negative control oligonucleotide neg1 for 6 days (3+3). After 3 days, RPMI-1640 medium was replaced with fresh RPMI-1640 medium containing […] of antisense oligonucleotide. Protein knockdown efficacy (FIG. 11A) and viability (FIG. 11B) were analyzed after 6 days by flow cytometry. […] On day 6, cells were re-plated at a constant cell number and ATP was added at concentrations of 2 μM (FIG. 11C) or 20 μM (FIG. 11D). ATP concentration was measured in the cell supernatants or in cell culture medium after 30 min (Table 15).

[4] = tested on: hCD39 mRNA; experiment: hCD39 mRNA knockdown efficacy screen in A-172 cells (single dose, gymnotic delivery, QuantiGene Singleplex); assay type: cell-based, human; settings: 10 μM; for Mean hCD39 mRNA expression (relative to untreated cells set as 1): first screening round; for Mean hCD39 mRNA expression (relative to untreated cells set as 1) / Relative hCD39 mRNA expression (compared to non-treated cells): normalized to HPRT1; for Relative hCD39 mRNA expression (compared to non-treated cells): second screening round
Outline: as §1

Substance: +C*+G*+T*T*T*A*G*G*C*T*A*T*G*T*A*+C*+T*+T (CGTTTAGGCTATGTACTT; chemistry not fully specified) [neg1, negative control antisense oligonucleotide not hybridizing with CD39, described in WO2014154843 A1, reference compound]
- inhibition of hCD39 protein [1]: no inhibitory effect
- influence on the expression of hCD39 [2]: no negative influence on the expression of hCD39
- Mean hCD39 mRNA expression normalized to HPRT1 relative to untreated control = 1 ([2]; 3 days): 1.09
- Relative hCD39 mRNA expression (compared to non-treated cells) ([2]; 3 days): 1.09
- Relative ATP levels in supernatants of CD8+ T cells 30 minutes after addition of ATP ([3]; Added ATP (2 μmol/1)): 0
- Relative ATP levels in supernatants of CD8+ T cells 30 minutes after addition of ATP ([3]; Added ATP (20 μmol/1)): 0.12
- influence on the expression of hCD39 [4]: no negative influence on the expression of hCD39
- Mean hCD39 mRNA expression (relative to untreated cells set as 1) ([4]; 3 days): 1.36
- Relative hCD39 mRNA expression (compared to non-treated cells) ([4]; 3 days): 0.79

Substance: +G*+T*+T*T*G*T*G*T*G*A*G*A*G*C*+T*+T (antisense GTTTGTGTGAGAGCTT; sugars from the 5' end l3 d11 l2, all phosphorothioate, methylation of C not given here) [A04040H]
- Inhibition [%] (Protein/mRNA) ([1]; Day 3, 0.1 μM): 46.73%
- Inhibition [%] (Protein/mRNA) ([1]; Day 3, 0.5 μM): 54.75%
- Inhibition [%] (Protein/mRNA) ([1]; Day 3, 1 μM): 60.56%
- Inhibition [%] (Protein/mRNA) ([1]; Day 3, 10 μM): 61.36%
- Inhibition [%] (Protein/mRNA) ([1]; Day 4, 0.1 μM): 70.73%
- Inhibition [%] (Protein/mRNA) ([1]; Day 4, 0.5 μM): 78.25%
- Inhibition [%] (Protein/mRNA) ([1]; Day 4, 1 μM): 76.96%
- Inhibition [%] (Protein/mRNA) ([1]; Day 4, 10 μM): 79.11%
- Inhibition [%] (Protein/mRNA) ([1]; Day 6, 0.1 μM): 87.37%
- Inhibition [%] (Protein/mRNA) ([1]; Day 6, 0.5 μM): 89.36%
- Inhibition [%] (Protein/mRNA) ([1]; Day 6, 1 μM): 84.12%
- Inhibition [%] (Protein/mRNA) ([1]; Day 6, 10 μM): 88.84%
- inhibition of hCD39 protein [1]: potent inhibition of hCD39 protein after all indicated time points
- Mean hCD39 mRNA expression normalized to HPRT1 relative to untreated control = 1 ([2]; 3 days): 0.08
- Relative hCD39 mRNA expression (compared to non-treated cells) ([2]; 3 days): 0.06
- Residual hCD39 mRNA expression relative to untreated cells (set as 1) ([2]; 3 days, third screening round): 0.01
- Relative ATP levels in supernatants of CD8+ T cells 30 minutes after addition of ATP ([3]; Added ATP (2 μmol/1)): 0.59
- Relative ATP levels in supernatants of CD8+ T cells 30 minutes after addition of ATP ([3]; Added ATP (20 μmol/1)): 0.89
- ATP concentration compared to neg 1 treated cells ([3]; primary human CD8+ T cells, 5 μM, 6 days): about 7 ×
- ATP degradation efficacy ([3]; primary human CD8+ T cells, 5 μM, 6 days, 2 or 20 μM ATP, 30 min): nearly abolished
- Mean hCD39 mRNA expression (relative to untreated cells set as 1) ([4]; 3 days): 0.07
- Relative hCD39 mRNA expression (compared to non-treated cells) ([4]; 3 days): 0.04
- Residual hCD39 mRNA expression relative to untreated cells (set as 1) ([4]; 3 days, third screening round): 0.05
